Measured values reported in ChEMBL document CHEMBL1201862, “PubChem BioAssay data set” (2004).
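Following 48 hours of exposure in 96-well plates, responses at five concentrations were used to interpolate endpoints linearly. Here, GI50 denotes the concentration required for 50% inhibition of growth.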 Activity calls are given as the source filed them. Cut-off read from the data, not from the text of the source: active = GI50 up to about 1.1 µM and inactive = higher.

Experiments:
Assay in all cases: NCI anticancer screen, dose series, 48 h
[1] = tested on: XF498
[2] = tested on: RXF 631
[3] = tested on: LXFL 529
[4] = tested on: DLD-1
[5] = tested on: HOP-18
[6] = tested on: M19-MEL
[7] = tested on: DMS-273
[8] = tested on: BT-549
[9] = tested on: Hs-578T

| Compound | GI50 [1] | GI50 [2] | GI50 [3] | GI50 [4] | GI50 [5] | GI50 [6] | GI50 [7] | GI50 [8] | GI50 [9] |
| --- | --- | --- | --- | --- | --- | --- | --- | --- | --- |
| O=C(NCc1cccnc1)C1COc2cc(-c3cc(=O)c4ccccc4o3)ccc2O1 (stereo unspecified) | 24.6 µM (inactive) | > 56.1 µM (inactive) | 4.95 µM (inactive) | > 100 µM (inactive) | > 79.4 µM (inactive) | 3.93 µM (inactive) |  |  |  |
| COc1cccc(/C=C2\N=C(Cl)OC2=O)c1O | > 100 µM (inactive) |  | > 100 µM (inactive) | > 76.7 µM (inactive) | > 100 µM (inactive) |  | > 100 µM (inactive) |  |  |
| CC1=C(C(=O)Nc2ccccc2C)C(c2ccc(N(C)C)cc2)C(C(=O)Nc2ccccc2C)=C(C)N1 | 22.6 µM (inactive) | 56.4 µM (inactive) |  | 45.9 µM (inactive) |  | > 100 µM (inactive) | 64.9 µM (inactive) |  |  |
| COc1cc(C2c3cc4c(cc3[C@H](OCCN(C)C)[C@@H]3COC(=O)C23)OCO4)cc(OC)c1O (stereo partly specified) | 0.115 µM (active) | 0.0724 µM (active) | 2.02 µM (inactive) | 0.805 µM (active) | 0.27 µM (active) | 0.373 µM (active) | 0.0385 µM (active) | 0.499 µM (active) | 1.52 µM (inactive) |
| COc1cc(C=O)c(-c2c(C=O)ccc3c2OCO3)c(OC)c1OC |  | > 100 µM (inactive) | > 100 µM (inactive) | > 100 µM (inactive) | > 100 µM (inactive) | 61.4 µM (inactive) | 72.6 µM (inactive) |  |  |
| CC(C)(C)C1CC[C@H]2c3c([nH]c4ccccc34)[C@H]3C(=O)N(c4ccc(F)cc4)C(=O)[C@H]3[C@H]2C1 (stereo partly specified) | 14.2 µM (inactive) |  | 16 µM (inactive) | 16.8 µM (inactive) | 17.1 µM (inactive) | 17.1 µM (inactive) | 17.8 µM (inactive) |  |  |
| O=C(O/N=C1/CCCC/C1=C\c1ccccc1)c1ccc(Cl)c(Cl)c1 | 48.8 µM (inactive) | 16.8 µM (inactive) | 14.6 µM (inactive) | 84.5 µM (inactive) | > 100 µM (inactive) | 68.7 µM (inactive) | 23.9 µM (inactive) |  |  |
| Nc1ccc(C(=O)NN2C(=O)C(Cl)C2c2cc(Br)cc(Br)c2O)cc1 (stereo unspecified) | 14.1 µM (inactive) |  | 20.1 µM (inactive) | 13.3 µM (inactive) | 3.56 µM (inactive) | 11.9 µM (inactive) | 6.4 µM (inactive) |  |  |
| O=C(O/N=C1/CCC/C1=C\c1ccccc1)c1ccc(Cl)c(Cl)c1 |  | > 100 µM (inactive) | > 100 µM (inactive) | > 100 µM (inactive) | > 100 µM (inactive) | > 100 µM (inactive) | > 100 µM (inactive) |  |  |
| COc1cc(Nc2cnc3cc(N)ccc3n2)cc(OC)c1OC | 81.5 µM (inactive) |  | 82.4 µM (inactive) | > 100 µM (inactive) | 51.3 µM (inactive) | 74.8 µM (inactive) | 11.7 µM (inactive) |  |  |
| COc1ccc(/C=C/C(=O)c2sc(-n3nc(-c4ccccc4)cc3-c3ccccc3)nc2C)cc1 | 33.7 µM (inactive) | > 10 µM (inactive) | > 10 µM (inactive) | > 10 µM (inactive) | > 10 µM (inactive) | > 10 µM (inactive) | > 10 µM (inactive) |  |  |
| COc1ccc2c3c1O[C@]1(C)C34CCN(C)C(C2)C42C=C[C@@]1(OC)c1c(O)ccc(O)c12 | > 100 µM (inactive) |  | > 100 µM (inactive) | > 100 µM (inactive) | > 100 µM (inactive) |  | > 100 µM (inactive) |  |  |
| Cc1cc(Cl)ccc1NC(=O)CC/C(CC(=O)C(C)C)=N\NC(=O)C[n+]1ccccc1 | > 100 µM (inactive) | > 100 µM (inactive) | > 100 µM (inactive) |  | > 100 µM (inactive) |  | > 100 µM (inactive) |  |  |
| O=c1oc2ccccc2c(O)c1C(C/C(CCN1CCCC1)=N\Nc1ccccc1)c1ccccc1 (stereo unspecified) | > 100 µM (inactive) |  | 84.5 µM (inactive) | 99.5 µM (inactive) | 91.8 µM (inactive) | 61.2 µM (inactive) |  |  |  |
| O=S(=O)(SCCCCSS(=O)(=O)c1ccc(Cl)cc1)c1ccc(Cl)cc1 |  | 8.2 µM (inactive) | 12.2 µM (inactive) | 13.8 µM (inactive) | 13.6 µM (inactive) | 14.8 µM (inactive) | 10.3 µM (inactive) |  |  |
| OCC(O)CNc1ccnc2cc(Cl)ccc12 (stereo unspecified) | > 100 µM (inactive) |  | > 100 µM (inactive) | > 100 µM (inactive) | > 100 µM (inactive) | > 100 µM (inactive) |  |  |  |
| CC1(CO)OC(n2cc(C(=O)NC(=O)OCc3ccccc3)c(=O)[nH]c2=O)CC1O (stereo unspecified) | > 100 µM (inactive) | > 100 µM (inactive) | > 100 µM (inactive) | > 100 µM (inactive) | > 100 µM (inactive) | > 100 µM (inactive) | > 100 µM (inactive) |  |  |
| O=c1cc(-c2ccccc2)oc2ccc(Cl)cc12 [6-CHLOROFLAVONE] | 37.2 µM (inactive) |  | > 100 µM (inactive) | > 100 µM (inactive) | > 100 µM (inactive) | > 100 µM (inactive) | 72.9 µM (inactive) | > 100 µM (inactive) | > 44.8 µM (inactive) |
| CN/C=C(/c1ccc(OC)cc1)C(O)c1ccc(OC)c(OC)c1 (stereo unspecified) | > 100 µM (inactive) | > 100 µM (inactive) |  | > 100 µM (inactive) | > 100 µM (inactive) | > 100 µM (inactive) | > 100 µM (inactive) |  |  |
| CCN1CCC(O)(c2ccc(C)cc2)C(C(=O)c2ccc(C)cc2)C1 (stereo unspecified) | 18 µM (inactive) |  | 17.4 µM (inactive) | 18.1 µM (inactive) | 22.1 µM (inactive) | > 47.3 µM (inactive) | 19.8 µM (inactive) |  |  |
| CCc1ccc(NC(=O)NC(=O)c2ccccc2[N+](=O)[O-])cc1Oc1ncc(Cl)cn1 | < 0.01 µM (active) |  | < 0.0185 µM (active) | < 0.0192 µM (active) | > 100 µM (inactive) | < 0.0275 µM (active) | < 0.0149 µM (active) | 0.0815 µM (active) | < 0.01 µM (active) |
| CCOC(=O)C(/N=N\c1ccc(S(N)(=O)=O)cc1)C(C)=O (stereo unspecified) | > 100 µM (inactive) | > 100 µM (inactive) | > 100 µM (inactive) | > 100 µM (inactive) | > 100 µM (inactive) | > 100 µM (inactive) | > 100 µM (inactive) |  |  |
| O=C(c1ccccc1)C(C(=O)c1ccccc1)C1(O)C(=O)c2ccccc2C1=O | 84.1 µM (inactive) |  | 28.6 µM (inactive) |  | 68.4 µM (inactive) | 16.6 µM (inactive) | 20.6 µM (inactive) |  |  |
| O=NN(CCCl)C(=O)NC1CCCCC1 [LOMUSTINE] | 64.9 µM (inactive) | 47.8 µM (inactive) | 47.4 µM (inactive) | 30.2 µM (inactive) | 31.6 µM (inactive) | 53 µM (inactive) | 48.1 µM (inactive) | 8.24 µM (inactive) | 37.9 µM (inactive) |
